# Results published in patent US12084411B2, “Hinokitiol analogues, methods of preparing and pharmaceutical compositions thereof” (The Board of Trustees of the University of Illinois, priority 2018, dated 2024).
# Assays:
# [1] = tested on: Mfrn1-deficient zebrafish; assay: Hemoglobinization in Mfrn1-deficient zebrafish; type: in vivo, Danio rerio
# TMEM14CΔ MEL cells = assay: Hemoglobinization of TMEM14C-deficient MEL cells; type: cell-based, mouse; details: 1 μM
# Description: (§1) Cells were then incubated at 37° C. for 72 hours unless otherwise noted. […] Hemoglobinized MEL cells were quantified three days after DMSO induction through o-dianisidine staining similar to previously reported (74). Cells were centrifuged three days after induction and rinsed with PBS. […] Cells were then imaged on an AXIO Zoom […] microscope to obtain color images. The number of stained cells were then quantified via ImageJ analysis and compared to the number of total cells in each image. To determine that hinokitiol requires DMSO induction for hemoglobinization, 2% DMSO was not added at the beginning of the experiment before a 72-hour incubation and o-dianisidine staining.
# ferritin = target: T1, ferritin (Homo sapiens, UniProt P02792+P02794); assay: Removal of 55Fe from ferritin; type: biochemical; details: buffered solution, 2.5 ng ferritin/mL
# T1 construct: endogenous in cells; host or cells: wild type Caco-2 monolayers (human, ATCC HTB-37); immunoprecipitated with anti-FTL1 on Protein G PLUS-Agarose beads
# T1 sequence (P02792 2-175 limits assumed): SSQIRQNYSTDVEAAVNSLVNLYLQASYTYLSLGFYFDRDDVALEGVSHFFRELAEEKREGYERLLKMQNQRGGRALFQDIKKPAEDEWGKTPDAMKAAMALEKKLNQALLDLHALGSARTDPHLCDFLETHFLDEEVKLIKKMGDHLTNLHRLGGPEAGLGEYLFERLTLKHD
# T1 sequence (P02794 whole entry): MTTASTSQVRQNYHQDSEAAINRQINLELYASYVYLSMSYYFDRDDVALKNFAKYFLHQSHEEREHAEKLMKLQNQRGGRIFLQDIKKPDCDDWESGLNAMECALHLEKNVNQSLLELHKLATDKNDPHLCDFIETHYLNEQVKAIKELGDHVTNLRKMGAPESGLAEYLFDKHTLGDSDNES
# Description: The immunoprecipitated ferritin was diluted to 2.5 ng ferritin/mL (determined by ELISA as described below) in 50 mM MES/Tris buffer at pH=7.0, and increasing concentrations of hinokitiol were added (from 1000X stock in DMSO) to give the final indicated concentrations. The suspension was mixed at room temperature for 2 hours.
# transferrin = transferrin (Homo sapiens, UniProt P02787); assay: Removal of 55Fe from transferrin; type: biochemical; details: buffered solution, 1 nM transferrin
# Chain of transferrin (P02787 20-698, species assumed): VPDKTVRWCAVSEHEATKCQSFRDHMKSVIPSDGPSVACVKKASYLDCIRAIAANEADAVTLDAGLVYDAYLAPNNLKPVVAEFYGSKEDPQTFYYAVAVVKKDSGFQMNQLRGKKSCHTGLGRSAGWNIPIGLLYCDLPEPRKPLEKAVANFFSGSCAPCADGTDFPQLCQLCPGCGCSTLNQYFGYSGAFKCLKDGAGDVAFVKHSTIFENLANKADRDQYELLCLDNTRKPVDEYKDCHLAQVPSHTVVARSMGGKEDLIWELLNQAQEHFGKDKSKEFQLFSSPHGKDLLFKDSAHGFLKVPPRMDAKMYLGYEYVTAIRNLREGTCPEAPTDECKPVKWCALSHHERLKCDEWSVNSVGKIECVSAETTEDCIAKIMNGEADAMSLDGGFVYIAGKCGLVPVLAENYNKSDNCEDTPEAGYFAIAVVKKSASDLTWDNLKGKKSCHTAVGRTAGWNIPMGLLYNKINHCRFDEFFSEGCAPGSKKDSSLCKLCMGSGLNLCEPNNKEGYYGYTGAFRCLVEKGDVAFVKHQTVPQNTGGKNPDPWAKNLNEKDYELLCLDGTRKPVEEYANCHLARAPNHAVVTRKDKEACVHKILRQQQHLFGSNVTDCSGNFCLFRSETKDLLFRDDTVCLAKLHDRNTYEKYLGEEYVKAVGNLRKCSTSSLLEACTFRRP
# Description: The capacity for hinokitiol to remove iron from transferrin was determined through a ^55Fe assay adapted from Cerami and coworkers (62). ^55Fe was loaded onto transferrin (Tf) similar to previously described in PBS buffer (63). Increasing hinokitiol doses (from 1000X stocks in DMSO) were added to a solution of ^55Fe2Tf (1 nM) in PBS buffer to give the final indicated concentrations. The solution was incubated at 37° C. for 3 hours. After incubation, any ^55Fe bound to hinokitiol was isolated by extraction of iron:hinokitiol complexes with EtOAc. The radioactive levels in the organic layer were determined after dilution in scintillation cocktail.
# fet3Δftr1Δ yeast = assay: Sustainability assay; type: cell-based, Saccharomyces cerevisiae; details: 10 μM hinokitiol, 10 μM FeCl3
# Description: Sustainable hinokitiol-promoted growth restoration of fet3Δftr1Δ yeast was performed similar to previously reported (20) by inoculation of hinokitiol-rescued yeast from low iron SD-agar plates containing 10 μM hinokitiol and 10 μM FeCl3 into low iron SD liquid media containing 10 μM hinokitiol and 10 μM FeCl3, then streaking of the yeast suspension (diluted to OD600 of 0.1) onto agar plates. This process was repeated for >100 days. Continued reliance of fet3Δftr1Δ yeast growth on hinokitiol was observed, as removal of hinokitiol from the SD-agar plates led to no fet3Δftr1Δ yeast cell growth.
# [2] = WST-8 toxicity in Caco-2 cells; details: human
# Description: Determination of small molecule-mediated toxicity in Caco-2, MEL, and/or J774 cells was performed according to manufacturer instructions using a WST-8 kit (Cayman Chemical 10010199) similar to previously reported (76) using a 1000× stock of the indicated small molecule in DMSO to give the indicated final concentration.
# [3] = Hinokitiol binding selectivity by ICP-MS; details: for Extracted Metal 1:1 Hino:Metals: 1 mM Hino; for Extracted Metal 1:1 Hino:Metals / Extracted Metal 10:1 Hino:Metals: 1 mM of each metal; for Extracted Metal 10:1 Hino:Metals: 60 mM Hino
# Description: The binding selectivity for hinokitiol with multiple divalent metals was determined similar to previously described (32). […] The colored solution was allowed to incubate for 4 hours at room temperature. The solution was diluted in buffer, and extracted (×3) using 1:1 Hexanes:Ethyl Acetate. […] Control experiments were performed similar to those described above but in the absence of hinokitiol. No metal was detected in the organic layer by ICP-MS. Control experiments were also performed similar to those described above but using 60 mM hinokitiol. Metal content after extraction was compared to the initial metal content in the aqueous solution before extraction, and it was determined that the metal:hinokitiol complexes are extracted into the organic layer.
# [4] = tested on: FPN1-deficient J774 macrophages; assay: 55Fe release from FPN1-deficient J774 macrophages; type: cell-based, mouse; details: hepcidin-treated cells
# Description: To knockdown FPN1 levels in wild type J774 cells, the cells were incubated with […] mouse hepcidin (Peptides International PLP-3773-PI) for 1 hour in J774 Complete media similar to previously described (41) before ^55Fe was loaded into J774 cells and ^55Fe release was determined.
# J774 cells were grown in 12-well plates to ˜80% confluency. The cells were then treated with vehicle or hepcidin in fresh J774 Complete media (1 mL) and incubated at 37° C. for 1 hour. After incubation, the media was aspirated, and then a ^55Fe2Tf (50 nM) solution in J774 Complete media (1 mL) containing vehicle or hepcidin was added. The cells were incubated at 37° C. for 10 minutes, and the media was removed. The cells were rinsed with PBS (×2), and then rinsed with J774 Complete media (1 mL) for 10 minutes at 37° C. […] At the indicated times, aliquots (<100 μL) of the media were removed, diluted in scintillation cocktail, and radioactivity was determined by liquid scintillation counting. […] The cell lysate was diluted in scintillation cocktail and intracellular ^55Fe levels were determined by liquid scintillation counting. The % ^55Fe release was determined by the ratio of extracellular ^55Fe to total (intracellular+ extracellular) ^55Fe at the indicated times.
# [5] = tested on: FPN1-deficient Caco-2 monolayers; assay: 55Fe uptake and transport in FPN1-deficient Caco-2 monolayers; type: cell-based, Human; details: 1 μM
# Description: To knockdown FPN1 levels in wild type Caco-2 cells, the differentiated epithelial monolayers were incubated with 150 μM quercetin (Sigma 337951) for 18 hours in Caco-2 Complete media containing G418 similar to previously described (40). To knockdown FPN1 levels in shControl and shDMT1 Caco-2 monolayers, incubation was performed as above except with 250 μM quercetin. After completion of the incubation, the apical and basolateral fluid was aspirated and rinsed with PBS before ^55Fe transport and uptake were determined as described above.
# normal MEL cells = assay: Hemoglobinization of normal MEL cells; type: cell-based, mouse; details: same concentration as in deficient system
# Description: as §1
smiles,measurement,setting,value
CC(C)c1cccc(=O)c(O)c1 [hinokitiol],hemoglobinization and GFP-positive erythrocytes,"[1]; Mfrn1-deficient morphant zebrafish, forty-eight hours",restored hemoglobinization and the number of GFP-positive erythrocytes
same,anemic phenotype,[1]; embryos from heterozygous cross of +/frs fish,rescued the anemic phenotype
same,hemoglobinization,TMEM14CΔ MEL cells,did not promote hemoglobinization
same,excess of hinokitiol relative to ferritin needed to remove iron,ferritin,"> 1,000,000 fold"
same,excess of hinokitiol relative to transferrin needed to remove iron,transferrin,"> 1,000 fold"
same,time over which growth restoration is sustained,fet3Δftr1Δ yeast,> 100 days
same,EC90,[2],> 100 µM
same,Cu^II competitively bound relative to Fe^II,[3]; 1:1 Hino:Metals,10 fold
same,Extracted Metal 1:1 Hino:Metals,[3]; Co^II,0.001 ± 0.000 µmol
same,Extracted Metal 10:1 Hino:Metals,[3]; Co^II,41 ± 0.3 µmol
same,Extracted Metal 1:1 Hino:Metals,[3]; Cu^II,45.15 ± 6.46 µmol
same,Extracted Metal 10:1 Hino:Metals,[3]; Cu^II,46 ± 0.2 µmol
same,Extracted Metal 1:1 Hino:Metals,[3]; Fe^II,4.80 ± 0.61 µmol
same,Extracted Metal 10:1 Hino:Metals,[3]; Fe^II,46 ± 0.4 µmol
same,Extracted Metal 1:1 Hino:Metals,[3]; Mn^II,0.0003 ± 0.0001 µmol
same,Extracted Metal 10:1 Hino:Metals,[3]; Mn^II,37 ± 0.8 µmol
same,Extracted Metal 10:1 Hino:Metals,[3]; Ni^II,35 ± 0.3 µmol
same,Extracted Metal 1:1 Hino:Metals,[3]; Zn^II,0.0015 ± 0.0006 µmol
same,Extracted Metal 10:1 Hino:Metals,[3]; Zn^II,38 ± 0.2 µmol
same,iron release,[4],time- and dose-dependently restored iron release
same,iron uptake,[5],without affecting iron uptake
same,monolayer integrity (TEER),[5],nor disrupting monolayer integrity
same,transepithelial iron transport,[5],restored transepithelial iron transport
same,effect on hemoglobinization in wild type system,normal MEL cells,negligible effects
